Assay results taken from patent US8778954B2, “Phenylpyridine derivative and medicinal agent comprising same” (Kowa Company, Ltd., priority 2009, dated 2014).

How the values were obtained:
[1] = biological target: T1, angiotensin II type 1 receptor (Oryctolagus cuniculus, UniProt P34976); test: Angiotensin II receptor antagonistic activity in isolated rabbit blood vessels (thoracic aorta ring, angiotensin II-induced contraction); format: cell-based; settings: 0.1 μM test compound, angiotensin II (10 nM)-induced contraction, read-out: Angiotensin II activity inhibitiom rate (%) at 0.1 μM concentration
T1 construct: By using a specimen of isolated rabbit blood vessels; from tissue; host or cells: rabbit (New Zealand White) thoracic aorta ring
T1 sequence (P34976 1-359): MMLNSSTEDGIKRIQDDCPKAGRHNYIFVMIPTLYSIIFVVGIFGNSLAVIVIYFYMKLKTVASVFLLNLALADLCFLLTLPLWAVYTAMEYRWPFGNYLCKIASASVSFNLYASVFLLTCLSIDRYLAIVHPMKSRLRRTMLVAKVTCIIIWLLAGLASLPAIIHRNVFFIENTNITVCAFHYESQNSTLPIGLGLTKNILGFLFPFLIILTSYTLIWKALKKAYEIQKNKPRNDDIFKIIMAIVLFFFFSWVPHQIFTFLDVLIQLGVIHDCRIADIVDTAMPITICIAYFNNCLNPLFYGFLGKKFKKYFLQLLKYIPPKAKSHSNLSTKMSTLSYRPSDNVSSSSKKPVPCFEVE
Experimental: By using a specimen of isolated rabbit blood vessels, antagonistic activity of the compounds of the invention against angiotensin II type 1 receptor was estimated from a dose-response curve of angiotensin II-induced blood vessel contraction. Specifically, the specimen of thoracic aorta ring of a rabbit (New Zealand White: male, 2.4 to 3.0 kg) was suspended in a magnus bath filled with Krebs-Henseleite buffer (composition: 118 mM NaCl, 4.7 mM KCl, 2.55 mM CaCl2, 1.18 mM MgSO4, 1.18 mM KH2PO4, 24.88 mM NaHCO3, and 11.1 mM D-glucose), and angiotensin II (10 nM)-induced contraction was obtained in the presence of the compounds of each test (1 nmol/L to 10 μmol/L). During the measurement, the inside temperature of the magnus bath was maintained at 37° C. and the bath was continuously ventilated with a sufficient amount of mixed gas (95% O2 and 5% CO2). The angiotensin II-induced contraction was converted into a relative value (%) that is based on the angiotensin II (0.1 μM)-induced contraction in the absence of the compounds of each example.

human PPARγ2 = biological target: T2, human PPARγ2 (Homo sapiens, UniProt P37231); test: PPARγ activation activity, Gal4-PPARγ2 LBD luciferase transfection assay using COS7 cells; format: cell-based; settings: Gal4-human PPARγ2 LBD chimera, 16 hours, rosiglitazone = 100%
T2 construct: the amino acids 182 to 505 of human PPARγ2; expressed in transfected cells; host or cells: COS7 cells (African green monkey kidney)
T2 sequence (P37231 182-505): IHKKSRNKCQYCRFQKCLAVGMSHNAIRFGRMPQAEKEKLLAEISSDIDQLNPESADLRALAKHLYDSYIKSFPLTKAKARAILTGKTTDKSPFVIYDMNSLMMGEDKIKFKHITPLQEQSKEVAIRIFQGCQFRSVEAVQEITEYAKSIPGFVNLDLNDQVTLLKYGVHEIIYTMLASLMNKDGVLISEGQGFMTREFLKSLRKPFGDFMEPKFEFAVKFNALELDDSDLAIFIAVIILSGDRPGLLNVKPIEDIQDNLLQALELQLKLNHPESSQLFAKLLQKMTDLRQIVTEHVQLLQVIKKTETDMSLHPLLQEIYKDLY
Experimental: The agonistic activity of the compounds of the invention on PPARγ was measured based on the transfection assay using COS7 cells (DS Pharma Biomedical Co., Ltd., Osaka, Japan), which are the cell line derived from the kidney of the African green monkey. COS7 cells were cultured under 5% CO2 concentration, and DMEM medium containing 10% fetal bovine serum, glutamic acid, and antibiotics was used as a medium.
As an expression vector, a chimera in which DNA binding domain of Gal4, which is a yeast transcription factor, and ligand binding domain of human PPARγ2 are fused, i.e., a fused product between the amino acids 1 to 147 of Gal4 transcription factor and the amino acids 182 to 505 of human PPARγ2, was used. Furthermore, as a reporter vector, a firefly luciferase containing five copies of Gal4 recognition sequence in the promoter region was used. Plasmid transfection to the cells was performed according to a method which uses jetPEI (trade name, manufactured by Funakoshi Co., Ltd., Tokyo, Japan). Furthermore, β-galactosidase expression vector was employed as an internal standard.
After the transfection of the cells, the medium was replaced with a DMEM medium (containing 1% serum) added with the test compound, and the cells were further cultured for 16 hours. After that, the luciferase activity and β-galactosidase activity in the cell lysis solution were measured.
For the present test, dimethyl sulfoxide (DMSO) was used for dissolution and dilution of the test compounds, and during the cell treatment, the DMSO concentration in DMEM medium (containing 1% serum) was adjusted to 0.1%. As a positive compound, rosiglitazone (trade name, manufactured by ALEXIS Corporation, Switzerland) was used. The luciferase activity (%) of the test compounds (1 to 30 μmol/L) was calculated when the luciferase activity of rosiglitazone (3 to 10 μmol/L) is 100% and the luciferase activity in the absence of the test compound is 0%. The 50% effective concentration of the test compound (EC50, 50% effect concentration) was calculated by using SAS Preclinical Package Ver 5.0 (trade name, manufactured by SAS institute Japan Co., Tokyo, Japan), which is a statistical analysis program.
EC50 values of these compounds are described in Table 2. […] Under the same condition, the PPARγ activation activity of telmisartan, i.e., EC50, was 1 to 5 μM.

[2] = test system: Zucker diabetic fatty (ZDF) rats; test: Activity for diabetic nephropathy in Zucker diabetic fatty rats; format: in vivo, rat; settings: 3 mg/kg once a day for 15 weeks; for elimination amount of urinary total protein per 18 hours: FIG. 4; for plasma triglyceride concentration: FIG. 5; for plasma total cholesterol concentration: FIG. 6; for renal protecting activity (diabetic nephropathy): overall conclusion
Experimental: By using 8-week old Zucker diabetic fatty (ZDF) rats, the body weight, the elimination amount of urinary total protein (UTP), the plasma triglyceride concentration (TG), and the plasma total cholesterol concentration (TC) of each rat were measured before administration of the medicine, and group separation was performed by blocking assignment so that there was no variation of these values between respective groups. Solvent control (0.5% MC), 3 mg/kg telmisartan, 3 mg/kg of the compound of Example 21, and 3 mg/kg of the compound of Example 23 were administered iteratively for 15 weeks once a day. UTP, TG, and TC were measured according to a general method during the administration period at 4, 8, 12, and 15 weeks after the administration.
Vehicle, Telmisartan, Compound 23, and Compound 21 in FIGS. 4, 5, and 6 represent solvent control, telmisartan, the compound of Example 23, and the compound of Example 21, respectively. The horizontal axis of FIG. 4-1 represents time (weeks after administration), and the vertical axis represents the elimination amount of urinary total protein per 18 hours. The data in FIG. 4-1 represents average values of each individual in each point, wherein -●- represents Vehicle (solvent control), -♦- represents Telmisartan, -▪- represents Compound 23 (the compound of Example 23), and -▴- represents Compound 21 (the compound of Example 21). The vertical axis of FIG. 4-2 represents the elimination amount of urinary total protein per 18 hours. The data in FIG. 4-2 represents individual values and average values of each individual +standard deviation.
The vertical axis of FIG. 5 represents the plasma triglyceride concentration. The data in FIG. 5 represents individual values and average values of each individual.
The vertical axis of FIG. 6 represents the plasma total cholesterol concentration. The data in FIG. 6 represents individual values and average values of each individual.
Furthermore, it was believed that one reason for the potent activity may be related to improving activity of lipid metabolism, and it is believed that the potent activity is attributed to activities other than the angiotensin receptor antagonistic activity.

| SMILES | inhibition at 0.1 µM [1] [%] | EC50 (human PPARγ2) [nM] | elimination amount of urinary total protein per 18 hours [2] | plasma triglyceride concentration [2] | plasma total cholesterol concentration [2] | renal protecting activity (diabetic nephropathy) [2] |
| --- | --- | --- | --- | --- | --- | --- |
| CCCCc1nc(C(C)C)n(-c2ncc(OCC)cn2)c(=O)c1Cc1ccc(-c2ccccc2-c2noc(=O)[nH]2)nc1 [Example 21, 3-{2-{5-{[4-butyl-1-(5-ethoxypyrimidin-2-yl)-2-isopropyl-6-oxo-1,6-dihydropyrimidin-5-yl]methyl}pyridin-2-yl}phenyl}-1,2,4-oxadiazol-5(4H)-one] | 70.3 | 450 | remarkably inhibited increase of the elimination amount of urinary total protein, and their activity was more potent than that of telmisartan | remarkably lowered the plasma triglyceride concentration | remarkably lowered the plasma total cholesterol concentration, and such activity was more potent than that of telmisartan | potent renal protecting activity |
| CCCCc1nc(C2CC2)n(-c2ncc(OCC)cn2)c(=O)c1Cc1ccc(-c2ccccc2-c2noc(=O)[nH]2)nc1 [Example 23, 3-{2-{5-{[4-butyl-2-cyclopropyl-1-(5-ethoxypyrimidin-2-yl)-6-oxo-1,6-dihydropyrimidin-5-yl]methyl}pyridin-2-yl}phenyl}-1,2,4-oxadiazol-5(4H)-one] | 75.2 | 760 | remarkably inhibited increase of the elimination amount of urinary total protein, and their activity was more potent than that of telmisartan | remarkably lowered the plasma triglyceride concentration | remarkably lowered the plasma total cholesterol concentration, and such activity was more potent than that of telmisartan | potent renal protecting activity |
